{"source": "patent US7635706B2", "about": "“5HT4-antagonistic 4-(aminomethyl)-piperidine benzamides” (Janssen Pharmaceutica NV, priority 2003, dated 2009)", "key": {"h5-HT4b": {"biological_target": "T1, h5-HT4b (Homo sapiens, UniProt Q13639)", "T1 construct": "expressed in transfected cells; host or cells: HEK 293 (clone 9), membrane preparation", "T1 sequence (Q13639 whole entry)": "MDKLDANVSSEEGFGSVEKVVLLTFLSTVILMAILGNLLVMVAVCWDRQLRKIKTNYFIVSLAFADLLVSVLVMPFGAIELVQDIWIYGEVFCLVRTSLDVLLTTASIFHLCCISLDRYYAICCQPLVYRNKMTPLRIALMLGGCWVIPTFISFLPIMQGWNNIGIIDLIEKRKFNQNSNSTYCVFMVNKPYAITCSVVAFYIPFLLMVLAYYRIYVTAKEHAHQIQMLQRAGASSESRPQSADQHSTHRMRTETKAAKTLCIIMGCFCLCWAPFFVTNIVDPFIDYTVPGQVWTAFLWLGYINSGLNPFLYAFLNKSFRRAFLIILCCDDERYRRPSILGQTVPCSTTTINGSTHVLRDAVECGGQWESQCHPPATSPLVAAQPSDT", "experiment": "5HT4 antagonism: [3H]GR113808 binding to membranes of h5-HT4b-HEK 293 clone 9 cells", "settings": "[3H]GR113808 0.1 nM, h5-HT4b-HEK 293 membranes, 30 min at 25° C.", "procedure": "h5-HT4b-HEK 293 clone 9 cells were cultured in 150 mm Petri dishes and washed twice with cold PBS. The cells were then scraped from the plates and suspended in 50 mM Tris-HCl buffer, pH 7.4 and harvested by centrifugation at 23,500 rpm for 10 minutes. The pellet was resuspended in 5 mM Tris-HCl, pH 7.4 and homogenized with an Ultra Turrax homogenizer. The membranes were collected by centrifugation at 30,000 rpm for 20 min, resuspended in 50 mM Tris-HCl pH 7.4 and stored at −80° C. For the experiment, assay mixtures (0.5 ml) contained 50 μl of the tritiated ligand (5-HT4 antagonist [^3H]GR113808 0.1 nM) and 0.4 ml membrane preparation (15 μg protein/ml). 50 μl of 10% DMSO was added for total binding. 50 μl of 1 μM of (+)-trans-(1-butyl-3-hydroxy4-piperidinyl)methyl 8-amino-7-chloro-2,3-dihydro-1,4-benzodioxin-5-carboxylate (a proprietary 5HT4 agonist of Janssen Pharmaceutica) was added for determination of non-specific binding.\nThe [^3H]GR113808 assay buffer was 50 mM HEPES-NaOH, pH 7.4. The mixtures were incubated for 30 min at 25° C. The incubation was terminated by filtration over a Unifilter 96 GF/B presoaked in 0.1% polyethylenimine, followed by six washing steps with 50 mM HEPES-NaOH, pH 7.4."}, "[1]": {"experiment": "Metabolic stability in liver microsomes with NADPH-generating system, LC-MS analysis", "type": "in vitro ADME", "settings": "compound 5 μM, active microsomes 1 mg/ml", "procedure": "Sub-cellular tissue preparations were made according to Gorrod et al. (Xenobiotica 5: 453-462, 1975) by centrifugal separation after mechanical homogenization of tissue. Liver tissue was rinsed in ice-cold 0.1 M Tris-HCl (pH 7.4) buffer to wash excess blood. Tissue was then blotted dry, weighed and chopped coarsely using surgical scissors. The tissue pieces were homogenized in 3 volumes of ice-cold 0.1 M phosphate buffer (pH 7.4).\nTissue homogenates were centrifuged at 9000×g for 20 minutes at 4° C. The resulting supernatant was stored at −80° C. and is designated ‘S9’.\nThe S9 fraction can be further centrifuged at 100.000×g for 60 minutes (4° C.). The resulting supernatant was carefully aspirated, aliquoted and designated ‘cytosol’. The pellet was re-suspended in 0.1 M phosphate buffer (pH 7.4) in a final volume of 1 ml per 0.5 g original tissue weight and designated ‘microsomes’.\nAll sub-cellular fractions were aliquoted, immediately frozen in liquid nitrogen and stored at −80° C. until use.\nFor the samples to be tested, the incubation mixture contained PBS (0.1M), compound (5 μM), microsomes (1 mg/ml) and a NADPH-generating system (0.8 mM glucose-6-phosphate, 0.8 mM magnesium chloride and 0.8 Units of glucose-6-phosphate dehydrogenase). Control samples contained the same material but the microsomes were replaced by heat inactivated (10 minutes at 95 degrees Celsius) microsomes. Recovery of the compounds in the control samples was always 100%.\nThe mixtures were preincubated for 5 minutes at 37 degrees Celsius. The reaction was started at time point zero (t=0) by addition of 0.8 mM NADP and the samples were incubated for 60 minutes (P60). The reaction was terminated by the addition of 2 volumes of DMSO. Then the samples were centrifuged for 10 minutes at 900×g and the supernatants were stored at room temperature for no longer as 24 hours before analysis. All incubations were performed in duplo. Analysis of the supernatants was performed with LC-MS analysis. Elution of the samples was performed on a Xterra MS C18 (50×4.6 mm, 5 μm, Waters, US). An Alliance 2790 (Supplier: Waters, US) HPLC system was used. Elution was with buffer A (25 mM ammoniumacetate (pH 5.2) in H2O/acetonitrile (95/5)), solvent B being acetonitrile and solvent C methanol at a flow rate of 2.4 ml/min. The gradient employed was increasing the organic phase concentration from 0% over 50% B and 50% C in 5 min up to 100% B in 1 minute in a linear fashion and organic phase concentration was kept stationary for an additional 1.5 minutes. Total injection volume of the samples was 25 μl.\nA Quatro triple quadrupole mass spectrometer fitted with and ESP source was used as detector. The source and the desolvation temperature were set at 120 and 350° C. respectively and nitrogen was used as nebuliser and drying gas. Data were acquired in positive scan mode (single ion reaction). Cone voltage was set at 10 V and the dwell time was 1 second.\nMetabolic stability was expressed as % metabolism of the compound after 15 or 60 minutes (equation given as example) of incubation in the presence of active microsomes (E(act))"}}, "note": "Counter-ions that a name gives are not always drawn."}
{"molecule": "CCCCN1CC[C@@H](CNC(=O)c2ccc(C)c3c2OCCCO3)[C@H](O)C1", "note": "[compound 1]", "values": [{"measurement": "IC50", "setting": "h5-HT4b", "value": 1.32, "unit": "nM"}, {"measurement": "melting point", "value": 127, "unit": "°C"}]}
{"molecule": "CCCCN1CC[C@@H](CNC(=O)c2cc(Cl)c(Cl)c3c2OCCCO3)[C@H](O)C1", "note": "[compound 16]", "values": [{"measurement": "IC50", "setting": "h5-HT4b", "value": 1.23, "unit": "nM"}, {"measurement": "melting point", "value": 115, "unit": "°C"}]}
{"molecule": "CCCCN1CC[C@@H](CNC(=O)c2cc(Cl)cc3c2OCCCO3)[C@H](O)C1", "note": "[WO-00/37461 Co. No. 119, reference compound]", "values": [{"measurement": "% metabolised compound", "setting": "[1]; 60 minutes incubation", "value": "68 (60″) %"}]}
{"molecule": "COc1ccc(C(=O)NC[C@@H]2CCN(CCCC(N)=O)C[C@H]2OC)c2c1OCCO2", "note": "[compound 140]", "values": [{"measurement": "IC50", "setting": "h5-HT4b", "value": 33.9, "unit": "nM"}, {"measurement": "melting point", "value": 180, "unit": "°C"}]}
{"molecule": "Cc1ccc(C(=O)NC[C@@H]2CCN(CCCCNS(C)(=O)=O)C[C@H]2O)c2c1OCCCO2", "note": "[compound 107]", "values": [{"measurement": "IC50", "setting": "h5-HT4b", "value": 2.45, "unit": "nM"}, {"measurement": "melting point", "value": 124, "unit": "°C"}]}
{"molecule": "O=C(NC[C@@H]1CCN(CCC2OCCO2)C[C@H]1O)c1cc(Cl)c(Cl)c2c1OCCCO2", "note": "[Co. No. 88]", "values": [{"measurement": "% metabolised compound", "setting": "[1]; 15 minutes incubation", "value": "10 (15″) %"}]}
{"molecule": "CCOc1ccc(C(=O)NC[C@@H]2CCN(CCCC#N)C[C@H]2O)c2c1OCCCO2", "note": "[compound 145]", "values": [{"measurement": "IC50", "setting": "h5-HT4b", "value": 8.71, "unit": "nM"}, {"measurement": "melting point", "value": 131, "unit": "°C"}]}
{"molecule": "CCCCN1CC[C@@H](CNC(=O)c2cc(Cl)c(Br)c3c2OCCCO3)[C@H](O)C1", "note": "[Co. No. 22]", "values": [{"measurement": "% metabolised compound", "setting": "[1]; 60 minutes incubation", "value": "51 (60″) %"}]}
{"molecule": "COCCCN1CC[C@@H](CNC(=O)c2ccc(C)c3c2OCCCO3)[C@H](O)C1", "note": "[compound 2]", "values": [{"measurement": "IC50", "setting": "h5-HT4b", "value": 2.75, "unit": "nM"}, {"measurement": "melting point", "value": 109, "unit": "°C"}]}
{"molecule": "O=C(NC[C@@H]1CCN(CCCO)C[C@H]1O)c1cc(Cl)cc2c1OCCCO2", "note": "[WO-00/37461 Co. No. 144, reference compound]", "values": [{"measurement": "% metabolised compound", "setting": "[1]; 15 minutes incubation", "value": "5 (15″) %"}]}
{"molecule": "CCCCN1CC[C@@H](CNC(=O)c2cc(Cl)c(OC)c3c2OCCO3)[C@H](O)C1", "note": "[compound 7]", "values": [{"measurement": "IC50", "setting": "h5-HT4b", "value": 1.74, "unit": "nM"}, {"measurement": "melting point", "value": 127, "unit": "°C"}]}
{"molecule": "O=C(NC[C@@H]1CCN(CCCO)C[C@H]1O)c1cc(Cl)c(Br)c2c1OCCCO2", "note": "[Co. No. 24]", "values": [{"measurement": "% metabolised compound", "setting": "[1]; 15 minutes incubation", "value": "4 (15″) %"}]}
{"molecule": "O=C(NC[C@@H]1CCN(CCC2OCCO2)C[C@H]1O)c1cc(Cl)cc2c1OCCCO2", "note": "[WO-00/37461 Co. No. 143, reference compound]", "values": [{"measurement": "% metabolised compound", "setting": "[1]; 15 minutes incubation", "value": "26.5 (15″) %"}]}
{"molecule": "CNCCCCN1CC[C@@H](CNC(=O)c2ccc(C)c3c2OCCCO3)[C@H](O)C1", "note": "(as salt: salt) [compound 4]", "values": [{"measurement": "melting point", "value": 120, "unit": "°C"}]}
{"molecule": "COc1ccc(C(=O)NC[C@@H]2CCNC[C@H]2O)c2c1OCCO2", "note": "[compound 117]", "values": [{"measurement": "IC50", "setting": "h5-HT4b", "value": 107, "unit": "nM"}, {"measurement": "melting point", "value": 160, "unit": "°C"}]}
{"molecule": "Cc1ccc(C(=O)NC[C@@H]2CCN(CCCC(N)=O)C[C@H]2O)c2c1OCCCO2", "note": "[compound 109]", "values": [{"measurement": "IC50", "setting": "h5-HT4b", "value": 1.17, "unit": "nM"}, {"measurement": "melting point", "value": 160, "unit": "°C"}]}
{"molecule": "CNCCN1CC[C@@H](CNC(=O)c2cc(Cl)c(Cl)c3c2OCCCO3)[C@H](OC)C1", "note": "[compound 84]", "values": [{"measurement": "IC50", "setting": "h5-HT4b", "value": 5.25, "unit": "nM"}]}
{"molecule": "COc1c(Cl)cc(C(=O)NC[C@@H]2CCN(CCCC#N)C[C@H]2O)c2c1OCCO2", "note": "[compound 30]", "values": [{"measurement": "IC50", "setting": "h5-HT4b", "value": 12.6, "unit": "nM"}]}
{"molecule": "N#CCCCN1CC[C@@H](CNC(=O)c2cc(Cl)c(Cl)c3c2OCCCO3)[C@H](O)C1", "note": "[compound 89]", "values": [{"measurement": "IC50", "setting": "h5-HT4b", "value": 2.09, "unit": "nM"}]}
{"molecule": "O=C(NC[C@@H]1CCNC[C@H]1O)c1cc(Cl)c(Cl)c2c1OCCCO2", "note": "[compound 20]", "values": [{"measurement": "IC50", "setting": "h5-HT4b", "value": 3.63, "unit": "nM"}]}
{"molecule": "COc1c(Cl)cc(C(=O)NC[C@@H]2CCNC[C@H]2O)c2c1OCCCO2", "note": "[compound 12]", "values": [{"measurement": "IC50", "setting": "h5-HT4b", "value": 43.7, "unit": "nM"}]}
{"molecule": "COCCCN1CC[C@@H](CNC(=O)c2cc(Cl)c(Cl)c3c2OCCCO3)[C@H](OC)C1", "note": "[compound 59]", "values": [{"measurement": "IC50", "setting": "h5-HT4b", "value": 3.72, "unit": "nM"}]}
{"molecule": "COCCCN1CC[C@@H](CNC(=O)c2ccc(OC)c3c2OCCO3)[C@H](O)C1", "note": "[compound 115]", "values": [{"measurement": "IC50", "setting": "h5-HT4b", "value": 11.7, "unit": "nM"}]}
{"molecule": "COc1ccc(C(=O)NC[C@@H]2CCN(CCCCC(N)=O)C[C@H]2O)c2c1OCCO2", "note": "[compound 125]", "values": [{"measurement": "IC50", "setting": "h5-HT4b", "value": 3.24, "unit": "nM"}]}
